Data on one compound can be found in patent US20130196989A1, “COMPOSITIONS AND METHODS FOR INDUCING CELL DEDIFFERENTIATION” (The Scripps Research Institute, priority 2003, published 2013).

Molecules are shown by their SMILES.

One series relates to C2C12 cells. The following applies: single-cell colonies, 6 days of treatment, portions cultured in ODM and ADM. How it is done:
Clonal analysis is used to verify that reversine can induce dedifferentiation at the single cell level. C2C12 cells were cultured from a single cell and treated with reversine. After 6 days of treatment, each colony was divided into two portions. One portion was cultured in ODM and another portion was cultured in ADM. The cells were then analyzed using the staining assays described in Example 1.

For series [1], the system named is C2C12 myoblast cells. How it is done: Mammalian cells (e.g., C2C12 myoblast cells) are treated with a suitable amount of a test compound (e.g., 5 μM reversine) in DMEM supplemented with 10% FBS for four days. The compound is then removed and medium is changed to ODM every two days. After seven days following induction of osteogenesis, the cells are washed with PBS (200 μL, 3 times) and fixed with 10% formalin solution (Sigma) for 20 min. The fixed cells are then washed with PBS (200 μL, 3 times) and stained with the Alkaline Phosphatase Staining Kit 86R (Sigma) as directed by the manufacturer. Images are taken on a Nikon Eclipse TE2000 microscope at 200 fold magnification.
(§1) After four days of treatment with reversine, the compound was removed and cells were then grown in osteogenic differentiation medium (ODM) or adipogenic differentiation medium (ADM).

For series [2], the system named is C2C12 myoblast cells. Conditions: 5 μM reversine, day four of compound treatment.
Series [3] deals with C2C12 myoblast cells. How it is done: Mammalian cells (e.g., C2C12 myoblast cells) were treated with a suitable amount of a test compound (e.g., 5 μM reversine) in DMEM supplemented with 10% FBS for four days. The compound was then removed and medium was changed to adipogenic differentiation medium (ADM) containing 0.5 mM 3-isobutyl-1-methylxanthine, 2.5 μg/ml insulin, and 0.5 μM dexamethasone. Typically, the ADM is replaced every two days. After seven days following induction of adipogenesis, the cells are washed with PBS (200 μL, 3 times) and fixed with 10% formalin solution (Sigma) for 10 min. The fixed cells are then washed with PBS (200 μL, 3 times) and stained with the 0.7% Oil Red O (Sigma) as directed by the manufacturer. Images are taken on a Nikon Eclipse TE2000 microscope at 200 fold magnification.
as §1
This is another data set of the same source.

The test system of series [4] is C2C12 myoblast cells. The following applies: 5 μM compound for four days, then seven days in osteogenic inducing medium; BBTP substrate.
Protocol: C2C12 cells (ATCC CRL-1772) are cultured in DMEM (Gibco) supplemented with 10% fetal bovine serum (HyClone) at 37° C. in 5% CO2.
For the small molecule screen, proliferating C2C12 cells are plated into black 384-well tissue culture plates (Greiner) at a density of 1,000 cells/well in DMEM with 10% FBS. […] After the cells are treated with test compounds for four days, the test compound is removed and the cell culture medium is changed to osteogenic differentiation medium (ODM) containing 50 μg/ml ascorbic acid 2-phosphate, 0.1 μM dexamethasone and 10 mM β-glycerophosphate. Cell culture medium is typically changed every two days. After seven additional days of culture in ODM, the ODM is removed and cells are lysed by incubation in 10 μL passive lysis buffer (Promega) for 10 min, followed by addition of 10 μL alkaline phosphatase substrate solution (AttoPhos, Promega). After a 15 minute room temperature incubation, fluorescence intensity is read on an Acquest (Molecular Devices) as directed by the manufacturer. […]
In the next series the test system is C2C12 myoblasts cells. The experiment in a line: Cell death at effective concentration. How it is done: as §1

On to `c1nc2nc(Nc3ccc(N4CCOCC4)cc3)nc(NC3CCCCC3)c2[nH]1` [Compound A, 2-(4-Morpholinoanilino)-6-cyclohexylamino-purine], for which the “colonies determined to be multipotent” value with C2C12 cells was 56 of 97. Further, in the series with C2C12 myoblast cells [1] (four days of treatment, compound removed, ODM conditions, end of day seven), the “cells stained positive for ALP” value came out at 35%. In the series on C2C12 myoblast cells [1] (in the absence of ODM), the “osteogenesis activity of compound alone” value is on record as “no osteogenesis activity”. In the series on C2C12 myoblast cells [2], the “myogenic specific markers such as MyoD and myosin” value is on record as “began to disappear”; the myotube formation result is reported as “completely inhibited”. In addition, the “cells with fat cell morphology, stained positive with Oil Red O” value with C2C12 myoblast cells [3] (four days of treatment, compound removed, ADM condition, end of day seven) amounted to 40%. Also, the “adipogenesis activity of compound alone” value in the series with C2C12 myoblast cells [3] (in the absence of ADM) is listed as “no adipogenesis activity”. The “level of ALP activity relative to the DMSO control treatment” value with C2C12 myoblast cells [4] was determined as 7 fold. In addition, the cell death entry in the series on C2C12 myoblasts cells was “no significant cell death”. The compound further showed an effective concentration in the series on C2C12 myoblasts cells (C2C12 dedifferentiation) of 0.5 to 5 µM.
